Test results from publication PMC5663093, “Bioprospecting of novel thermostable β-glucosidase from Bacillus subtilis RA10 and its application in biomass hydrolysis” (Biotechnology for Biofuels, 2017).

Key:
[1] = biological target: T1, BglB (β-glucosidase from B. subtilis RA10) (Bacillus subtilis, UniProt P42403); assay: β-glucosidase activity with added glucose ([…]); type: biochemical; conditions: inhibitor (product); weak inhibition
T1 construct: gene bglC; full-length GH1 gene (1437 bp, start MIHKKQG, end TNGKSL fixed by degenerate primers) in pET28a+ (BamHI/SalI), E. coli BL21(DE3); Asn169-Glu170, nucleophile Glu377
T1 sequence (P42403 whole entry): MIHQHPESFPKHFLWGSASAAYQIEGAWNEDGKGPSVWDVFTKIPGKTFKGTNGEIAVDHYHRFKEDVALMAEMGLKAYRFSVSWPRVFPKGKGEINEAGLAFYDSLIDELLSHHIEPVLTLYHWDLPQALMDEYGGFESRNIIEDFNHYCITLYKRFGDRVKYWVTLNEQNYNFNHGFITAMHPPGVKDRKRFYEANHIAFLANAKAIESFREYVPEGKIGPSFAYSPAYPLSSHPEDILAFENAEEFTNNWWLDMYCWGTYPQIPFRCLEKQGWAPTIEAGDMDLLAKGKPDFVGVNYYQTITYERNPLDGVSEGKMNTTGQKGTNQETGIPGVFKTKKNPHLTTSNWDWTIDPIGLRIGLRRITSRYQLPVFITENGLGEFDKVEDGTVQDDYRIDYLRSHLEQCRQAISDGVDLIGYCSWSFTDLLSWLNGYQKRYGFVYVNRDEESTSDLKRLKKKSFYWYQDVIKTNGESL

[2] = biological target: T1, BglB (β-glucosidase from B. subtilis RA10); assay: Michaelis-Menten nonlinear regression, p-nitrophenol release; type: biochemical; conditions: 50 mM citrate pH 5.0; 0.5-5.0 mM substrate

| SMILES | % activity retained at 1000 mM [1] | Km [2] |
| --- | --- | --- |
| OC[C@H]1OC(O)[C@H](O)[C@@H](O)[C@@H]1O (stereo partly drawn) [D-glucose] | 70% |  |
| O=[N+]([O-])c1ccc(O[C@@H]2O[C@H](CO)[C@@H](O)[C@H](O)[C@H]2O)cc1 [pNPG, p-nitrophenyl-β-D-glucopyranoside] |  | 3.9 ± 0.2 mM |
